For test [1], the target named is human phosphoinositide-3 kinase (PI3K) delta (Homo sapiens (Human), UniProt O00329). Kind of test: PI3K-mediated Akt 1/2 (S473) phosphorylation in Rat-1 cells overexpressing PI3K delta. The class given is cell-based. The following applies: cellular assay, p-AKT(Ser473), read-out: Cell PI3K delta IC50. How it is done: (§1) 2.1 Phosphoinositide-3 kinase (PI3K)-Mediated Akt 1/2 (S473) Phosphorylation in Rat-1 Cells
(§2) Rat-1 cells stably overexpressing a myristoylated form of the catalytic subunit of human phosphoinositide-3 kinase (PI3K) alpha, beta or delta were plated in 384-well plates at a density of 7500 (PI3K alpha), 6200 (PI3K beta), or 4000 (PI3K delta) cells in 30 ul complete growth medium (Dulbecco's modified Eagle's medium (DMEM high glucose) supplemented with 10% (v/v) fetal bovine serum, 1% (v/v) MEM non essential amino acids, 10 mM HEPES, 2 mM L-glutamine, 10 μg/mL puromycin and 1% (v/v) Penicillin/Streptomycin) and were incubated at […]/5% CO2/95% humidity for 24 h. Compounds were diluted in 384-well compound plates (compound master plates), to obtain 8-point serial dilutions for 40 test compounds in 90% DMSO, as well as 4 reference compounds plus 16 high controls and 16 low (inhibited) controls. Predilution plates were prepared by dispensing pipetting 250 nl of compound solutions into 384-well polypropylen plates (daugther plates), using a Hummingwell nanoliter dispenser. Compounds were prediluted by the addition of 49.75 ul complete growth medium. 10 ul of prediluted compound solution were transferred to the cell plate using a 384-well pipettor, resulting in a final DMSO concentration of 0.11%. Cells were incubated for 1 h at […]/5% CO2/95% humidity. The supernatant was removed, the cells were lysed in 20 ul of lysis buffer for AlphaScreen® SureFire® detection.
(§3) For detection of p-AKT(Ser473), the SureFire® p-Akt 1/2 (Ser473) Assay Kit (PerkinElmer, U.S.A.) was used. 5 ul of cell lysate was transferred to 384-well low volume Proxiplates for detection using a 384-well pipettor. Addition of AlphaScreen® SureFire® reagents was done according to the manufacturer's protocol. First, 5 ul of reaction buffer plus activation buffer mix containing AlphaScreen® acceptor beads was added, the plate was sealed, and incubated on a plate shaker for 2 hours at room temperature. Second, 2 ul of dilution buffer containing AlphaScreen® donor beads was added, and the plate was incubated on plate shaker as above for a further 2 hours. The plate was read on an AlphaScreen® compatible plate reader, using standard AlphaScreen® settings. Alternatively, p-AKT(Ser473) was detected with the CisBio HTRF Assay Kit: As positive control, 0.9 mM of 1-(3-(trifluoromethyl)-4-(piperazin-1-yl)phenyl)-8-(6-methoxypyridin-3-yl)-3-methyl-1H-imidazo[4,5-c]quinolin-2(3H)-one maleic acid salt in 90% (v/v) DMSO was added to the compound master plate. For compound testing, the cells were seeded at a density of 4000 (Rat-1_PI3Kdelta), 8000 (Rat-1_PI3Kalpha), or 6500 (Rat-1_PI3Kbeta) cells in 30 ul complete growth medium into 384-well plates, with a plastic surface promoting the adhesion of cells and their growth (assay plates) and were grown at 37° C./5% CO2/90% humidity for 24 h. Some 10 ul of the compound predilutions from the daughter plate were then transferred to the cells. After treatment with compound for 1 h, medium was removed and cells were lysed by the addition of 20 ul lysis buffer supplemented with blocking buffer. Detection of p-AKT(Ser473) was performed with the HTRF pAKT (Ser473) assay kit according to the manufacturer's instructions using 16 ul of cell lysate in a total detection volume of 20 ul.

For another test, the target named is PI 3-Kinase Gamma (Homo sapiens (Human), UniProt P48736). As to the kind of experiment: Cellular U937 AKT assay for PI 3-kinase gamma. Type of test: cell-based. The following applies: U937 cells, MIP1α-stimulated AKT phosphorylation, read-out: Cell PI3K gamma IC50. How it is done: The U937 monocyte cell line is maintained in a basal medium of RPMI 1640 supplemented with 10% heat inactivated FCS, 100 U/ml Penicillin, 100 ug/ml streptomycin and 2 mM L-glutamine (Invitrogen). U937 suspension culture is maintained by seeding cells at a density of 0.125×10^6 cells per ml in fresh medium every three or four days. Cells are incubated at 37° C., 5% CO2. […] Before beginning the cell manipulations described below, the MSD (Meso Scale Discovery) assay plate is blocked by addition of 150 ul/well blocking buffer supplied and incubated with shaking for a minimum of one hour at room temperature. All steps of the assay must be performed quickly, with accurately timed incubation periods and observing temperature controls where indicated. […] Falcon tube, counted and centrifuged for eight minutes at 300 g at room temperature. Supernatant is aspirated, the cell pellet resuspended and washed once in HBSS (Hank's Balanced Salt Solution) by centrifugation for eight minutes at 300 g at room temperature. The cell pellet is resuspended in HBSS to a concentration of 4×10^6 per ml, and 100 μL of cell suspension added to each well of a flat-bottomed 96-well tissue culture plate. Assay plates are incubated for 1.5 hours at 37° C., 5% CO2 to allow background AKT phosphorylation to reduce before the compound stimulation step. […] Compound concentrations at this stage are 4-times the final concentration required in the assay plate. Cells are stimulated with compound or HBSS 0.8% DMSO by direct transfer of 50 ul/well from the compound dilution plate. The assay plate containing compound-treated cells is then incubated for 30 minutes at 37° C. A standard plate layout is used for all experiments. Compound-treated cells, in addition to positive control wells (“max MIP1α”), are stimulated with 50 μL per well of 40 ng/ml MIP1α (R&D Systems catalogue number 270-LD, lyophilized stock reconstituted to 50 μg/ml with PBS 0.1% BSA). Negative control wells (“min HBSS”), are stimulated with 50 μl/well of HBSS in the absence of MIP1α. […] Cells are incubated with MIP1α for 3 minutes, at 37° C., 5% CO2. After the three minute stimulation period, the assay plate is kept ice cold at all times. Assay plates are centrifuged for 2 minutes at 300 g, 4° C. and supernatant is removed by gently inverting, and then blotting the plate on tissue. Cells are then washed by gentle addition of 150 μL/well of ice cold HBSS and centrifugation at 300 g, for 5 minutes at 4° C. Supernatant is aspirated and the plate blotted as described above. The plate is placed on ice and cells are immediately treated with 35 μL per well of ice cold lysis buffer, prepared according to the kit instructions (per assay plate, to 5 ml of Tris lysis buffer add 100 μl of 50× protease inhibitor solution and 50 μl of each 100× phosphatase inhibitor solutions I and II). Plates are incubated on ice for 20 minutes before centrifugation at 841 g for 5 minutes, 4° C. Block buffer is aspirated from the MSD plate, and the plate washed four times with 300 μl/well Tris wash buffer. 25 μL of cell lysate is then transferred from the assay plate to the washed MSD plate which is sealed and incubated at room temperature for one hour with shaking. The plate is washed four times with 300 μL per well of Tris wash buffer before addition of 25 μL per well of sulfo-tag anti-total AKT/pAKT detection antibody (60 μl of 50× antibody stock is diluted in 1 ml block buffer mixed with 2 ml wash buffer) and incubated at room temperature for one hour with shaking. The plate is washed four times with 300 μl per well of Tris wash buffer and 150 μl per well of Read buffer is added, taking care to avoid the introduction of bubbles. The plate is immediately read using an MSD SECTOR Imager 6000. Results are exported in Excel and the percentage of phosphorylated AKT is calculated using the equation: % Phosphoprotein=((2*Phospho signal)/(Phospho signal+Total signal))*100. […]

Test [2] deals with human phosphoinositide-3 kinase (PI3K) alpha (Homo sapiens (Human), UniProt P42336). As to the kind of experiment: PI3K-mediated Akt 1/2 (S473) phosphorylation in Rat-1 cells overexpressing PI3K alpha. The following applies: cellular assay, p-AKT(Ser473), read-out: Cell PI3K alpha IC50. The class given is cell-based, rat cells expressing human PI3K alpha. How it is done:
as §1, §2, §3

Some results are limits rather than exact numbers.

Chain of human phosphoinositide-3 kinase (PI3K) delta (O00329 whole entry): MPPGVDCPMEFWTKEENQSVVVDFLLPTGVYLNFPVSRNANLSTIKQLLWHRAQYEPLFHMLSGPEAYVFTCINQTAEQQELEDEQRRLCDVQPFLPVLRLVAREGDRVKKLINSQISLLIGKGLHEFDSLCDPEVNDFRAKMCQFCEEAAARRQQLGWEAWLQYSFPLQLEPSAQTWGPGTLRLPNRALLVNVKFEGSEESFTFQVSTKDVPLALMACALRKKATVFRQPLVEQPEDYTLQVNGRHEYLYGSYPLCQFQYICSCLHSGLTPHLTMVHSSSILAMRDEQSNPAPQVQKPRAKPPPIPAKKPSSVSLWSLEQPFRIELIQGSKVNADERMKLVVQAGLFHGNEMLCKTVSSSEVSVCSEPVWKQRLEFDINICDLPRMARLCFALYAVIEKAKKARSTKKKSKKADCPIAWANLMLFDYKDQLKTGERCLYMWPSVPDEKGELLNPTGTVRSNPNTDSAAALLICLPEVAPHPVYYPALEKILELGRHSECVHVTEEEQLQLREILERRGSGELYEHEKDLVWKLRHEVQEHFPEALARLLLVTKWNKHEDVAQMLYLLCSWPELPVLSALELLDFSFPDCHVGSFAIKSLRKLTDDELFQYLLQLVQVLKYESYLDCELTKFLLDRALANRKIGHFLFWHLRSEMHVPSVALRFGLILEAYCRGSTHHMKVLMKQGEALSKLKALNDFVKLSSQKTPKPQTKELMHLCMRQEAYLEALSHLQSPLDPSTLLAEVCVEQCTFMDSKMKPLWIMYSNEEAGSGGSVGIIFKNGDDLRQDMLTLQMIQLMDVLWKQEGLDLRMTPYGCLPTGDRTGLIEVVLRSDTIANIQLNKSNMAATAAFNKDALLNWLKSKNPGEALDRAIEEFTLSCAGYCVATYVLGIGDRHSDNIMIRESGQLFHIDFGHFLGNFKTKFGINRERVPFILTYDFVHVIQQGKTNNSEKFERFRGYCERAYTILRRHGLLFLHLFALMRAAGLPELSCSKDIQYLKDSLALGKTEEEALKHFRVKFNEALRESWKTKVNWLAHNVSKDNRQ
Chain of human phosphoinositide-3 kinase (PI3K) delta (Q63787 whole entry partner): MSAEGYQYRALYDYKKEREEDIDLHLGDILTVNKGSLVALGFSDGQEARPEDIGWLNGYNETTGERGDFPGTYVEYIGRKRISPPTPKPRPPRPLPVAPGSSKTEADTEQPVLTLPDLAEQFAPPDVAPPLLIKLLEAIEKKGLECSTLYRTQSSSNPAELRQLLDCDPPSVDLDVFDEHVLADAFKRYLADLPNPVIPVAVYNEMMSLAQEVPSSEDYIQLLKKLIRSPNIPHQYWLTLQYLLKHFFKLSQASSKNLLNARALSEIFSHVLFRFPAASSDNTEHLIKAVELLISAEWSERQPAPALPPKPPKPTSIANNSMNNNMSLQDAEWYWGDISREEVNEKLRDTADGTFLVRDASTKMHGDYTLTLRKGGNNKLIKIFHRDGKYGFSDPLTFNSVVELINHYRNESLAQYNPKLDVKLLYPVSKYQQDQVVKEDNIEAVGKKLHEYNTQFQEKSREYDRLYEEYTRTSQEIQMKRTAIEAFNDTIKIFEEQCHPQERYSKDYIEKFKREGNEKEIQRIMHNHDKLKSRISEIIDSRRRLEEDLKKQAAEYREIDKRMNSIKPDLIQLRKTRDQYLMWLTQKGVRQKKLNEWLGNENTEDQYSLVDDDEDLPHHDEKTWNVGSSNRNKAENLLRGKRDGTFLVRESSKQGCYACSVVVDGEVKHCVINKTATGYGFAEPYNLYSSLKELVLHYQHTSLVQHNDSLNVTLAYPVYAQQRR
Chain of human phosphoinositide-3 kinase (PI3K) alpha (P42336 whole entry): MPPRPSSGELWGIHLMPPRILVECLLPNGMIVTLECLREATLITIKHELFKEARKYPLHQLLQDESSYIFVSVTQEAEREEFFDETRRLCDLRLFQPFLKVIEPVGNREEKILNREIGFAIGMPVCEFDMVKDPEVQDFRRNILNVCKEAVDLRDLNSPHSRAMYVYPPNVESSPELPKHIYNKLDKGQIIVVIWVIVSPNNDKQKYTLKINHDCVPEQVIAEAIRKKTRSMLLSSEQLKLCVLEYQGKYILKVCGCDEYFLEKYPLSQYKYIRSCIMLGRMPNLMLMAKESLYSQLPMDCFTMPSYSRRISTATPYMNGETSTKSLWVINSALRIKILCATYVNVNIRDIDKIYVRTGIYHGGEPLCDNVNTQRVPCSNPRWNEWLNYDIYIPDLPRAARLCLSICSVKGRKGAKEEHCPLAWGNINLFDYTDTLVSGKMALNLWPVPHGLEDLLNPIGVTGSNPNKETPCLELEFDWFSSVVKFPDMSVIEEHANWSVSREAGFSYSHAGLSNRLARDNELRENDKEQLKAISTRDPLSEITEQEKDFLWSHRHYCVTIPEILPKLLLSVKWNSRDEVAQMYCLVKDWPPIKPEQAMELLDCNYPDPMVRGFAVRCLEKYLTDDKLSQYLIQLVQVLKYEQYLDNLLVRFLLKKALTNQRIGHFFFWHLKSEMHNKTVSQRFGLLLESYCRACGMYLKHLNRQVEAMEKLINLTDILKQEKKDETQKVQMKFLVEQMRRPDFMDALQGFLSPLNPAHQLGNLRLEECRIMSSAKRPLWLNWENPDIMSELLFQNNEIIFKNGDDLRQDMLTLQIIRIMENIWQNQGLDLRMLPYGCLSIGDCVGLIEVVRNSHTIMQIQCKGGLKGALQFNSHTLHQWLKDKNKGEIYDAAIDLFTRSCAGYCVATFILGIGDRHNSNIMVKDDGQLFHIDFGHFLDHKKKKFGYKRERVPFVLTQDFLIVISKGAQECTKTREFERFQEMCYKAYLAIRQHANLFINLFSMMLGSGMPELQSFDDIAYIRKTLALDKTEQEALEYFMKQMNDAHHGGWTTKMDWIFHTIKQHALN
Chain of human phosphoinositide-3 kinase (PI3K) alpha (Q63787 whole entry partner): as the sequence (Q63787 whole entry partner) above
Chain of PI 3-Kinase Gamma (P48736 whole entry): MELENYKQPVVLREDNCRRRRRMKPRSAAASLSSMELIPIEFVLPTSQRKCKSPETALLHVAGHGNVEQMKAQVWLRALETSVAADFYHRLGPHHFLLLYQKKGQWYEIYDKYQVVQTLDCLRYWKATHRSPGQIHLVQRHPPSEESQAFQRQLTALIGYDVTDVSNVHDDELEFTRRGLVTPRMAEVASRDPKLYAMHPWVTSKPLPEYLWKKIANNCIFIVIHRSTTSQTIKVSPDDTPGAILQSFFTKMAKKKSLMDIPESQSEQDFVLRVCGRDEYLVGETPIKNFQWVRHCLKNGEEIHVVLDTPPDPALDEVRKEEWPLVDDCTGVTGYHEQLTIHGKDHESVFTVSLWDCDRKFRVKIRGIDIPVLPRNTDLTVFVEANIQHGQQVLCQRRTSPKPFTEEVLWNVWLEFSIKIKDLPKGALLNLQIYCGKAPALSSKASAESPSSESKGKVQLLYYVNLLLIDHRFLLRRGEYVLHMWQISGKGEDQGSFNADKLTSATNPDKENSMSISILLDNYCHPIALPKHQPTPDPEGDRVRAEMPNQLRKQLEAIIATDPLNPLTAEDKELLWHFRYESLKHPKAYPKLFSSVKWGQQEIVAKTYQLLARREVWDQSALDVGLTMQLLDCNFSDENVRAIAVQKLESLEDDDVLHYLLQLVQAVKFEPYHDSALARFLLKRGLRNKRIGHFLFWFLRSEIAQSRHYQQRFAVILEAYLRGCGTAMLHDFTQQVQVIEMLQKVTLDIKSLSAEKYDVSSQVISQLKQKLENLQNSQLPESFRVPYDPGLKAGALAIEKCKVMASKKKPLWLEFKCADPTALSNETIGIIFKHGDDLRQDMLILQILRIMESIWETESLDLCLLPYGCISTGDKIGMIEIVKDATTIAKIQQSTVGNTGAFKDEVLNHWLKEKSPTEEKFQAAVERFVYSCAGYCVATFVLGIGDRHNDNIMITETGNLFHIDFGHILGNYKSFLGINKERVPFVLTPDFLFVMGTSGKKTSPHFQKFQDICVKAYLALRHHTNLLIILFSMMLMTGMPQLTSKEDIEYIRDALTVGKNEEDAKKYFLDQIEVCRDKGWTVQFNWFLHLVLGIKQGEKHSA

With `Cc1ncc(-c2cccc3nc([C@@H]4C[C@H](O)CN4c4nc(N)nc(C)c4C#N)n(-c4ccccc4)c(=O)c23)cn1` [Example 23, 2-Amino-4-((2S,4S)-4-hydroxy-2-(5-(2-methylpyrimidin-5-yl)-4-oxo-3-phenyl-3,4-dihydroquinazolin-2-yl)pyrrolidin-1-yl)-6-methylpyrimidine-5-carbonitrile], the IC50 in test [1] is 0.013 µM; at PI 3-Kinase Gamma, 0.011 µM; in test [2], above 10 µM.

Source of the values: US9840498B2, “Substituted quinazolin-4-one derivatives” (NOVARTIS AG, priority 2013, dated 2017).
